The record followed here is US5462933A, “Modified bile acid conjugates, and their use as pharmaceuticals” (Hoechst Aktiengesellschaft, priority 1989, dated 1995).

pIC50: −log10 of the molar value. Counter-ions that a name gives are not always drawn. Like-named read-outs stand apart in the source and are kept apart here.

The pIC50 is −log10 of the IC50, conventionally taken in molar units. In general, IC25 refers to the point of the concentration-response curve where the effect stands at 25%. A lower IC25 goes with an effect from little substance. For orientation: IC75 means the concentration at which the effect reaches the 75% level.

The target in the assay is T1, Na+-dependent bile acid transport system (Oryctolagus cuniculus, UniProt Q28727).
T1 construct: brush-border membrane vesicles from the ileum of rabbits; from tissue; host or cells: terminal ileum of male New Zealand rabbits, brush-border membrane vesicles
T1 sequence (Q28727 1-347): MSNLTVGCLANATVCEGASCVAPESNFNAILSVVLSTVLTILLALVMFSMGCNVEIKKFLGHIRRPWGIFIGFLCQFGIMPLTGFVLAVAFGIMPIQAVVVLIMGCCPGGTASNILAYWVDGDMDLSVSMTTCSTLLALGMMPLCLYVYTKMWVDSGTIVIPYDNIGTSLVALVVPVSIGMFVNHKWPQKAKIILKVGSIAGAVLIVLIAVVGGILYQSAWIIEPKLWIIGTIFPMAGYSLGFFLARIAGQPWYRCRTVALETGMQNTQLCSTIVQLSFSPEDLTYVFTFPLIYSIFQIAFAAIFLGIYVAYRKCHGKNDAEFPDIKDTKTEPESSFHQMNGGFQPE
Put plainly: Inhibition of Na+-dependent [3H]taurocholate absorption into brush-border membrane vesicles of the ileum. It is filed as biochemical, rabbit. How it is done:
The preparation of brush-border membrane vesicles from the intestinal cells of the small intestine was carried out using the so-called Mg^2+ precipitation method. Male New Zealand rabbits (2-2.5 kg body weight) were sacrificed by intravenous injection of 0.5 ml of T-61^R. The small intestine was removed and rinsed with ice-cold physiological saline solution. The terminal 3/10 of the small intestine (measured in the oral-rectal direction, i.e. the terminal ileum, which contains the active Na^+ -dependent bile acid transport system) were used for preparation of the brush-border membrane vesicles. The intestines were frozen at -80° C. under nitrogen in plastic bags. The frozen intestines were thawed in a water bath at 30° C. in order to prepare the membrane vesicles. The mucosa was scraped off and suspended in 60 ml of ice-cold 12 mM trys/HCl buffer (pH 7.1)/300 mM mannitol, 5 mM EGTA/10 mg/l of phenylmethylsulfonyl fluoride/1 mg/l of soybean trypsin inhibitor (32 U/mg)/0.5 mg/l of bovine lung trypsin inhibitor (193 U/mg)/5 mg/l of bacitracin. After diluting to 300 ml with ice-cold distilled water, the suspension was homogenized with ice-cooling for 3 minutes at 75% of maximum power using an Ultraturrax (18 rod, IKA Werk Staufen, Federal Republic of Germany). After addition of 3 ml of 1M MgCl2 solution (final concentration 10 mM), the homogenate was allowed to stand at 0° C. for exactly 1 minute. As a result of addition of Mg^2+, the cell membranes aggregate and precipitate with the exception of the brush-border membranes. After centrifugation at 3,000×g (5,000 rpm, SS-34 rotor) for 15 minutes, the precipitate is discarded and the supernatant which contains the brush-border membranes is centrifuged at 26,700×g (15,000 rpm, SS-34 rotor) for 30 minutes. The supernatant was discarded, and the precipitate was rehomogenized in 60 ml of 12 mM tris/HCl buffer (pH 7.1)/60 mM mannitol, 5 mM EGTA using a Potter Elvejhem homogenizer (Braun Melsungen, 900 rpm, 10 strokes). After addition of 0.1 ml of 1M MgCl2 solution and an incubation time of 15 minutes at 0° C., the mixture was again centrifuged at 3,000×g for 15 minutes. The supernatant was then again centrifuged at […] (15,000 rpm, SS-34 rotor) for 30 minutes. The precipitate was taken up in 30 ml of 10 mM tris/hepes buffer (pH 7.4)/300 mM mannitol and homogeneously resuspended by 20 strokes in a Potter Elvejhem homogenizer at 1,000 rpm. After centrifugation at 48,000×g (20,000 rpm, SS-34 rotor) for 30 minutes, the precipitate was taken up in 0.5 to 2 ml of tris/hepes buffer (pH 7.4)/280 mM mannitol (final concentration 20 mg/ml) and resuspended with the aid of a tuberculin syringe using a 27 gauge needle. The vesicles were either used immediately after preparation for transport investigations or stored at -196° C. in liquid nitrogen in 4 mg portions.
The absorption of substrates into brush-border membrane vesicles was determined by means of the so-called membrane filtration technique. 10 μl of the vesicle suspension (100 μg of protein) were pipetted on the wall of a polystyrene incubation tube (11×70 mm) as a drop which contained the incubation medium together with the corresponding ligands (90 μl ). […] The incubation medium was filtered through a polyvinylidene fluoride membrane filter (SYHV LO 4NS, 0.45 μm, 4 mm .phi., Millipore, Eschborn, Federal Republic of Germany). The transport measurement was begun by mixing the vesicles with the incubation medium. […] After the desired incubation time (customarily 1 min), the transport was stopped by addition of 1 ml of ice-cold stop solution (10 mM tris/hepes, (pH 7.4)/150 mM KCl). The resulting mixture was immediately filtered off with suction in a vacuum of 25 to 35 mbar through a membrane filter made of cellulose nitrate (ME 25, 0.45 μm, 25 mm diameter, Schleicher & Schuell, Dassell, Federal Republic of Germany). The filter was subsequently washed with 5 ml of ice-cold Stop solution.

Setting [1] is: Na+-dependent transport component, 50 μM taurocholate.

Regarding `C[C@H](CCC(=O)O)[C@H]1CC[C@H]2[C@@H]3[C@H](O)C[C@@H]4C[C@@H](OCCNC(=O)CCCc5ccc(N(CCCl)CCCl)cc5)CC[C@]4(C)[C@H]3C[C@H](O)[C@]12C` [Example 66], the pIC50 is 4.06. Moreover, under setting [1], the IC25 stood at 60 µM and the IC75 was found to be 148 µM.

The compound `C[C@H](CCC(=O)NCC(=O)O)[C@H]1CC[C@H]2[C@@H]3[C@H](O)C[C@@H]4C[C@@H](OCCNC(=O)CCCc5ccc(N(CCCl)CCCl)cc5)CC[C@]4(C)[C@H]3C[C@H](O)[C@]12C` [Example 68] gave a pIC50 of 4.05. For the same compound, under setting [1], the 25% effect concentration (IC25) was determined as 60 µM and the 75% effect concentration (IC75) worked out at 250 µM.

Compound `CC(C)c1cc(-c2ccc(F)cc2)c(OC[C@@H](O)C[C@@H](O)CC(=O)NCCO[C@H]2CC[C@@]3(C)[C@@H](C2)C[C@@H](O)[C@@H]2[C@@H]3C[C@H](O)[C@]3(C)[C@@H]([C@H](C)CCC(=O)O)CC[C@@H]23)c(C(C)C)c1` [Example 81] displayed a 25% effect concentration (IC25) of 15 µM and a 75% effect concentration (IC75) of 64 µM. In addition, the pIC50 (read-out: IC50) is 4.42.

On to `CC(C)c1cc(-c2ccc(F)cc2)c(OC[C@@H](O)C[C@@H](O)CC(=O)NCCCO[C@H]2CC[C@@]3(C)[C@@H](C2)C[C@@H](O)[C@@H]2[C@@H]3C[C@H](O)[C@]3(C)[C@@H]([C@H](C)CCC(=O)O)CC[C@@H]23)c(C(C)C)c1` [Example 82 (Na salt)], for which the concentration for an effect of 25% (IC25) stood at 17 µM and it took 80 µM to reach the 75% level (IC75). Besides, the pIC50 (read-out: IC50) was 4.32.

For the compound `CC(C)c1nc(-c2ccccc2)cc(-c2ccc(F)cc2)c1/C=C/[C@@H](O)C[C@@H](O)CC(=O)NCCO[C@H]1CC[C@@]2(C)[C@@H](C1)C[C@@H](O)[C@@H]1[C@@H]2C[C@H](O)[C@]2(C)[C@@H]([C@H](C)CCC(=O)O)CC[C@@H]12` [Example 85], the IC25 was 18 µM and the 75% effect level (IC75) was put at 64 µM. For the same compound, for the setting “read-out: IC50”, the negative-log IC50 (pIC50) was 4.37.

On to `CC(C)c1nc(-c2ccccc2)cc(-c2ccc(F)cc2)c1/C=C/[C@@H](O)C[C@@H](O)CC(=O)NCCCO[C@H]1CC[C@@]2(C)[C@@H](C1)C[C@@H](O)[C@@H]1[C@@H]2C[C@H](O)[C@]2(C)[C@@H]([C@H](C)CCC(=O)O)CC[C@@H]12` [Example 86], for which the IC25 is 14 µM and the IC75 is 87 µM. In addition, the negative-log IC50 (pIC50) (read-out: IC50) was 4.21.

In turn, `CC(C)c1nc(-c2ccccc2)cc(-c2ccc(F)cc2)c1/C=C/[C@@H](O)C[C@@H](O)CC(=O)NCCCO[C@@H]1CC[C@@]2(C)[C@@H](C1)C[C@@H](O)[C@@H]1[C@@H]2C[C@H](O)[C@]2(C)[C@@H]([C@H](C)CCC(=O)O)CC[C@@H]12` [Example 87] displayed a 25% effect concentration (IC25) of 16 µM and a concentration for an effect of 75% (IC75) of 70 µM. Besides, the pIC50 (read-out: IC50) is 4.25.

The compound `Cc1cc(C(=C(/C=C/[C@@H](O)C[C@@H](O)CC(=O)NCCO[C@H]2CC[C@@]3(C)[C@@H](C2)C[C@@H](O)[C@@H]2[C@@H]3C[C@H](O)[C@]3(C)[C@@H]([C@H](C)CCC(=O)O)CC[C@@H]23)C(C)C)c2ccc(F)c(C)c2)ccc1F` [Example 90] came in with an IC25 of 3.8 µM and an IC75 of 27 µM. In addition, for the setting “read-out: IC50”, the negative-log IC50 (pIC50) was 4.92.

In the case of `CC(C)c1cc(Sc2ccc(F)cc2)cc(-c2ccc(F)cc2)c1OC[C@@H](O)C[C@@H](O)CC(=O)NCCO[C@H]1CC[C@@]2(C)[C@@H](C1)C[C@@H](O)[C@@H]1[C@@H]2C[C@H](O)[C@]2(C)[C@@H]([C@H](C)CCC(=O)O)CC[C@@H]12` [Example 93], the concentration for an effect of 25% (IC25) turned out to be 3.2 µM and the IC75 is 23 µM. In addition, the pIC50 (read-out: IC50) was 5.10.

The compound `CC(C)c1cc(Sc2ccc(F)cc2)cc(-c2ccc(F)cc2)c1OC[C@@H](O)C[C@@H](O)CC(=O)NCCCO[C@H]1CC[C@@]2(C)[C@@H](C1)C[C@@H](O)[C@@H]1[C@@H]2C[C@H](O)[C@]2(C)[C@@H]([C@H](C)CCC(=O)O)CC[C@@H]12` [Example 94] yielded an IC25 of 4.5 µM and a 75% effect concentration (IC75) of 24 µM. For the setting “read-out: IC50”, the negative-log IC50 (pIC50) is 4.89.

As to `CC(C)c1cc(-c2ccc(F)cc2)c(OC[C@@H](O)C[C@@H](O)CC(=O)NCCO[C@H]2CC[C@@]3(C)[C@@H](C2)C[C@@H](O)[C@@H]2[C@@H]3C[C@H](O)[C@]3(C)[C@@H]([C@H](C)CCC(=O)NCC(=O)O)CC[C@@H]23)c(C(C)C)c1` [Example 101], it took 19 µM to reach the 25% level (IC25) and the IC75 turned out to be 68 µM. For the same compound, the negative-log IC50 (pIC50) (read-out: IC50) is 4.40.

With `CC(C)c1nc(-c2ccccc2)cc(-c2ccc(F)cc2)c1/C=C/[C@@H](O)C[C@@H](O)CC(=O)NCCO[C@H]1CC[C@@]2(C)[C@@H](C1)C[C@@H](O)[C@@H]1[C@@H]2C[C@H](O)[C@]2(C)[C@@H]([C@H](C)CCC(=O)NCC(=O)O)CC[C@@H]12` [Example 105], the IC25 was 11 µM and it took 45 µM to reach the 75% level (IC75). Also, the pIC50 (read-out: IC50) was 4.65.

Compound `CC(C)c1cc(-c2ccc(F)cc2)c(OC[C@@H](O)C[C@@H](O)CC(=O)NCCO[C@H]2CC[C@@]3(C)[C@@H](C2)C[C@@H](O)[C@@H]2[C@@H]3C[C@H](O)[C@]3(C)[C@@H]([C@H](C)CCC(=O)NCCS(=O)(=O)O)CC[C@@H]23)c(C(C)C)c1` [Example 111] returned an IC25 of 10 µM and an IC75 of 39 µM. Further, the pIC50 (read-out: IC50) is 4.62.

The compound `CC(C)c1nc(-c2ccccc2)cc(-c2ccc(F)cc2)c1/C=C/[C@@H](O)C[C@@H](O)CC(=O)NCCO[C@H]1CC[C@@]2(C)[C@@H](C1)C[C@@H](O)[C@@H]1[C@@H]2C[C@H](O)[C@]2(C)[C@@H]([C@H](C)CCC(=O)NCCS(=O)(=O)O)CC[C@@H]12` [Example 115 (Na salt)] came in with a 25% effect concentration (IC25) of 12 µM and an IC75 of 44 µM. The pIC50 (read-out: IC50) is 4.55.

The compound `COC(=O)CC[C@@H](C)[C@H]1CC[C@H]2[C@@H]3[C@H](O)C[C@@H]4C[C@@H](OCCNC(=O)[C@@H](C)NC(=O)[C@@H](C)NC(=O)OCc5ccccc5)CC[C@]4(C)[C@H]3C[C@H](O)[C@]12C` [Example 119, Z-D-Ala-D-Ala-NH--(CH2)2 --GS--OCH3] registered an IC25 of 48 µM. Further, where the note is “read-out: IC50”, the negative-log IC50 (pIC50) was 3.87.

Compound `COC(=O)CC[C@@H](C)[C@H]1CC[C@H]2[C@@H]3[C@H](O)C[C@@H]4C[C@@H](OCCNC(=O)[C@@H](C)NC(=O)[C@@H](C)N)CC[C@]4(C)[C@H]3C[C@H](O)[C@]12C` [Example 120, H-D-Ala-D-Ala-NH--(CH2)2 --GS--OCH3] yielded an IC25 of 38 µM and a concentration for an effect of 75% (IC75) of 178 µM. Besides, where the note is “read-out: IC50”, the pIC50 is 4.06.

For `C[C@H](CCC(=O)O)[C@H]1CC[C@H]2[C@@H]3[C@H](O)C[C@@H]4C[C@@H](OCCNC(=O)[C@@H](C)NC(=O)[C@@H](C)N)CC[C@]4(C)[C@H]3C[C@H](O)[C@]12C` [Example 121, H-D-Ala-D-Ala-NH--(CH2)2 --GS--OH], the 25% effect level (IC25) was put at 30 µM and the concentration for an effect of 75% (IC75) came to 172 µM. The pIC50 (read-out: IC50) is 4.08.
